Source: PMC4335062, “Data-Driven Prediction and Design of bZIP Coiled-Coil Interactions” (PLoS Computational Biology, 2015)
Where two headings read alike, the source gives them in different places. Where no end group is shown, it is not given here.

Tests used:
Test in all cases: Direct-binding FRET assay
[1] = biological target: FOS (Homo sapiens, UniProt P01100); design: made in house
Method: (§1) The direct binding assay was performed manually in 384-well plates and is similar to a previously described assay. Wells were filled with 20 μL of 1 mM TCEP-HCl. A 4 μM stock of acceptor protein was made fresh in 1 mM TCEP-HCl, and 20 μL was titrated in 2-fold dilutions over the wells. […] The direct-binding FRET data were fit as previously described. Briefly, the Kd of the designed peptide homodimer was experimentally determined and used with previously determined target homodimer Kd values to determine the heterodimer Kd. The homodimer Kd values used for the human bZIPs were from; experiments done by […] et al. used the same protein constructs for the human bZIP proteins, the same buffer conditions, and the same assay. The fitting used a system of ordinary differential equations to describe the concentrations of homo and heterodimers formed by the donor (D) and acceptor (A) as a function of the heterodimer Kd. MATLAB was used to simulate the binding experiment for different Kd values, and the value that gave the best agreement between simulation and experiment was assigned. A minimum 15% change in the donor fluorescence upon titrating the acceptor peptide from 0 to 1000 nM was required for a fit to be attempted. If this minimum was not met, the interaction was classified as “NS” for no signal change. […] For such curves, we removed the first five points and re-fit the data.

[2] = biological target: ATF6B (Homo sapiens, UniProt Q99941); design: made in house
Method: as §1

[3] = biological target: JUN (Homo sapiens, UniProt P05412); design: made in house
Method: as §1

[4] = biological target: MAFG (Homo sapiens, UniProt O15525); design: made in house
Method: as §1

[5] = biological target: T1, NFE2L3 (Homo sapiens, UniProt Q9Y4A8)
T1 construct: made in house
T1 sequence (Q9Y4A8 578-641 limits assumed): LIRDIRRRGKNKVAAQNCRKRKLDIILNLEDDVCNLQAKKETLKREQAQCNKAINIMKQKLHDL
Method: as §1

[6] = biological target: T2, NFE2 (Homo sapiens, UniProt Q16621)
T2 construct: made in house
T2 sequence (Q16621 266-329 limits assumed): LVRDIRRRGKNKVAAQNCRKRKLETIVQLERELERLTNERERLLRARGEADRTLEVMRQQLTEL
Method: as §1

[7] = biological target: T3, ATF3 (Homo sapiens, UniProt P18847)
T3 construct: made in house
T3 sequence (P18847 86-149 limits assumed): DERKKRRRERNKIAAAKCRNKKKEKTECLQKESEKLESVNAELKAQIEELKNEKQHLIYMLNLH
Method: as §1

[8] = biological target: T4, CREB1 (Homo sapiens, UniProt P16220)
T4 construct: made in house
T4 sequence (P16220 269-327 limits assumed): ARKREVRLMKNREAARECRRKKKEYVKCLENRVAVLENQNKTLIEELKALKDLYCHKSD
Method: as §1

[9] = biological target: T5, MAFF (Homo sapiens, UniProt Q9ULX9)
T5 construct: made in house
T5 sequence (Q9ULX9 51-114 limits assumed): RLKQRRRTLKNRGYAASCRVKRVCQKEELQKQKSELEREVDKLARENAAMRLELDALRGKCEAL
Method: as §1

[10] = biological target: T6, XBP1 (Homo sapiens, UniProt P17861)
T6 construct: made in house
T6 sequence (P17861 70-133 limits assumed): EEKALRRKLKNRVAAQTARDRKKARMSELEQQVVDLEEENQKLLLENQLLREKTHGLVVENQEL
Method: as §1

[11] = biological target: T7, ATF4 (Homo sapiens, UniProt P18848)
T7 construct: made in house
T7 sequence (P18848 278-341 limits assumed): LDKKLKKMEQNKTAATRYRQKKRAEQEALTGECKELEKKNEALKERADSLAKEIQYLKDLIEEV
Method: as §1

[12] = 4°C, C-terminal fluorescein design as donor, TAMRA target titrated
[13] = 4°C, N-terminal rhodamine design, mean or single
[14] = 23°C, C-terminal fluorescein design as donor, TAMRA target titrated
[15] = 23°C, C-terminal rhodamine design, repeat 1
[16] = 23°C, N-terminal rhodamine design, mean or single
[17] = 37°C, C-terminal fluorescein design as donor, TAMRA target titrated
[18] = 37°C, N-terminal rhodamine design, mean or single
[19] = Kd, 4°C, C-terminal fluorescein design as donor, TAMRA target titrated
[20] = Kd, 4°C, N-terminal rhodamine design, mean or single
[21] = Kd, 23°C, C-terminal fluorescein design as donor, TAMRA target titrated
[22] = Kd, 23°C, N-terminal rhodamine design, mean or single
[23] = Kd, 37°C, C-terminal fluorescein design as donor, TAMRA target titrated
[24] = Kd, 37°C, N-terminal rhodamine design, mean or single
[25] = 4°C, C-terminal rhodamine design, repeat 1
[26] = 4°C, N-terminal rhodamine design, mean or single, read-out: Kd
[27] = 23°C, N-terminal rhodamine design, mean or single, read-out: Kd
[28] = 37°C, C-terminal rhodamine design, repeat 1, read-out: Kd
[29] = 37°C, C-terminal rhodamine design, repeat 2, read-out: Kd
[30] = 4°C, C-terminal rhodamine design, mean or single, read-out: Kd
[31] = 23°C, C-terminal rhodamine design, mean or single, read-out: Kd
[32] = 37°C, C-terminal rhodamine design, mean or single, read-out: Kd
[33] = 37°C, N-terminal rhodamine design, mean or single, read-out: Kd
[34] = 4°C, N-terminal rhodamine design, repeat 1, read-out: Kd
[35] = 23°C, N-terminal rhodamine design, repeat 1, read-out: Kd

ATF6B, sequence (Q99941 325-388 limits assumed): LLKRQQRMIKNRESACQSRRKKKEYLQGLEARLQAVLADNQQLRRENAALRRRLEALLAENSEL
MAFG, sequence (O15525 51-114 limits assumed): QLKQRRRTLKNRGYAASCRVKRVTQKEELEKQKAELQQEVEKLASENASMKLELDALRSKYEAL

SIAATLEKEEANLEKMNKKLAAEIESLLKEKDKLESVLNYHE [JUN-d1]
Kd [1]: > 1 µM | Kd [1, 12]: > 1 µM | Kd [1, 13]: > 1 µM | Kd [1, 14]: > 1 µM | Kd [1, 15]: > 1 µM | Kd [1, 16]: > 1 µM | Kd [1, 17]: > 1 µM | Kd [1, 18]: > 1 µM | Kd [2, 19]: 0.2 to 1 µM | Kd ([2]; Kd, 4°C, C-terminal rhodamine design, repeat 1): > 1 µM | Kd [2, 20]: > 1 µM | Kd [2, 21]: > 1 µM | Kd ([2]; Kd, 23°C, C-terminal rhodamine design, repeat 1): > 1 µM | Kd [2, 22]: > 1 µM | Kd [2, 23]: > 1 µM | Kd ([2]; Kd, 37°C, C-terminal rhodamine design, repeat 1): > 1 µM | Kd [2, 24]: > 1 µM | Kd [3, 19]: 0.0021 µM | Kd ([3]; Kd, 4°C, C-terminal rhodamine design, mean or single): 0.001 µM | Kd [3, 23]: 0.0161 µM | Kd [4]: > 1 µM | Kd [4, 25]: > 1 µM | Kd [4, 13]: > 1 µM | Kd [4, 15]: > 1 µM | Kd [4, 16]: > 1 µM | Kd [4, 18]: > 1 µM | Kd [5]: > 1 µM | Kd [5, 25]: > 1 µM | Kd [5, 13]: > 1 µM | Kd [5, 15]: > 1 µM | Kd [5, 16]: > 1 µM | Kd [5, 18]: > 1 µM | Kd [6]: > 1 µM | Kd [6, 12]: > 1 µM | Kd [6, 25]: > 1 µM | Kd [6, 13]: > 1 µM | Kd [6, 14]: > 1 µM | Kd [6, 15]: > 1 µM | Kd [6, 16]: > 1 µM | Kd [6, 17]: > 1 µM | Kd [6, 18]: > 1 µM | Kd [7]: > 1 µM | Kd [7, 12]: > 1 µM | Kd [7, 13]: > 1 µM | Kd [7, 14]: > 1 µM | Kd [7, 15]: > 1 µM | Kd [7, 16]: > 1 µM | Kd [7, 17]: > 1 µM | Kd [7, 18]: > 1 µM | Kd [8]: > 1 µM | Kd [8, 12]: > 1 µM | Kd [8, 25]: > 1 µM | Kd [8, 13]: > 1 µM | Kd [8, 14]: > 1 µM | Kd [8, 15]: > 1 µM | Kd [8, 16]: > 1 µM | Kd [8, 17]: > 1 µM | Kd [8, 18]: > 1 µM | Kd [9]: > 1 µM | Kd [9, 25]: > 1 µM | Kd [9, 13]: > 1 µM | Kd [9, 15]: > 1 µM | Kd [9, 16]: > 1 µM | Kd [9, 18]: > 1 µM | Kd [10]: > 1 µM | Kd [10, 25]: > 1 µM | Kd [10, 13]: > 1 µM | Kd [10, 15]: > 1 µM | Kd [10, 16]: > 1 µM | Kd [10, 18]: > 1 µM | Kd [11, 20]: 0.592 µM | Kd [11, 21]: 0.0401 µM | Kd [11, 22]: > 5 µM | Kd [11, 23]: 0.441 µM | Kd ([11]; Kd, 37°C, C-terminal rhodamine design, mean or single): 0.543 µM | Kd [11, 24]: > 1 µM

KRIAYLRQRIAELRNENHVLESRIQRMEKEKDALQQDRDHLEYEL [ATF5-d1]
Kd [1, 26]: 0.0896 µM | Kd [1, 27]: 0.753 µM | Kd [1, 28]: > 5 µM | Kd [1, 29]: > 5 µM | Kd [2, 26]: > 5 µM | Kd ([2]; 23°C, C-terminal rhodamine design, repeat 1, read-out: Kd): > 5 µM | Kd ([2]; 23°C, C-terminal rhodamine design, repeat 2, read-out: Kd): > 5 µM | Kd [2, 27]: > 5 µM | Kd [2, 28]: > 5 µM | Kd [2, 29]: > 5 µM | Kd [3, 30]: 0.119 µM | Kd [3, 26]: > 5 µM | Kd [3, 31]: > 5 µM | Kd [3, 27]: > 5 µM | Kd [3, 32]: > 5 µM | Kd [3, 33]: > 5 µM | Kd [4, 30]: > 5 µM | Kd [4, 31]: > 1 µM | Kd [4, 27]: > 1 µM | Kd [4, 32]: > 1 µM | Kd [4, 33]: > 1 µM | Kd [5, 30]: > 5 µM | Kd [5, 26]: > 1 µM | Kd [5, 31]: > 1 µM | Kd [5, 27]: > 1 µM | Kd [5, 32]: 0.911 µM | Kd [5, 33]: > 1 µM | Kd [6, 30]: 0.162 µM | Kd [6, 26]: > 5 µM | Kd [6, 31]: > 5 µM | Kd [6, 27]: > 1 µM | Kd [6, 32]: > 5 µM | Kd [6, 33]: > 1 µM | Kd [7, 30]: > 5 µM | Kd [7, 26]: > 1 µM | Kd [7, 31]: > 5 µM | Kd [7, 27]: > 1 µM | Kd [7, 32]: > 1 µM | Kd [7, 33]: > 1 µM | Kd [8, 30]: 0.133 µM | Kd [8, 26]: 0.506 µM | Kd [8, 31]: 0.589 µM | Kd [8, 27]: > 5 µM | Kd [8, 33]: > 1 µM | Kd [9, 30]: 0.266 µM | Kd [9, 34]: > 5 µM | Kd [9, 31]: > 5 µM | Kd [9, 35]: > 5 µM | Kd [9, 32]: > 5 µM | Kd ([9]; 37°C, N-terminal rhodamine design, repeat 1, read-out: Kd): > 5 µM | Kd [10, 30]: > 5 µM | Kd [10, 26]: > 5 µM | Kd [10, 31]: > 1 µM | Kd [10, 27]: > 5 µM | Kd [10, 32]: > 1 µM | Kd [10, 33]: > 5 µM | Kd [11, 30]: 0.001 µM | Kd [11, 26]: > 1 µM | Kd [11, 34]: > 1 µM | Kd ([11]; 4°C, N-terminal rhodamine design, repeat 2, read-out: Kd): > 1 µM | Kd ([11]; 4°C, N-terminal rhodamine design, repeat 3, read-out: Kd): > 1 µM | Kd [11, 31]: 0.001 µM | Kd [11, 35]: > 5 µM | Kd ([11]; 23°C, N-terminal rhodamine design, repeat 2, read-out: Kd): > 5 µM
